In PubChem BioAssay (NCI):
Values joined by “and” are separate entries in the source; they are usually repeats but may differ in a detail not shown here. Equal entries are not always repeated.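 Cells were grown in 96-well plates and exposed to each compound for 48 hours at five concentrations; endpoints were interpolated linearly between bracketing concentrations, or set to the highest concentration if not reached. Here, GI50 denotes the concentration required for 50% inhibition of growth. TGI: total growth inhibition.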

Key:
Experiment in all cases: NCI anticancer screen, dose series, 48 h
[1] = tested on: SF-295 CNS
[2] = tested on: RXF 393 renal
[3] = tested on: IGROV1 ovarian
[4] = tested on: SF-268 CNS
[5] = tested on: HS 578T breast
[6] = tested on: OVCAR-3 ovarian
[7] = tested on: MALME-3M melanoma
[8] = tested on: K-562 leukemia
[9] = tested on: DU-145 prostate
[10] = tested on: SF-539 CNS

Structure (SMILES) | GI50 [1] | TGI [1] | GI50 [2] | TGI [2] | GI50 [3] | TGI [3] | GI50 [4] | TGI [4] | GI50 [5] | TGI [5] | GI50 [6] | TGI [6] | GI50 [7] | TGI [7] | GI50 [8] | TGI [8] | GI50 [9] | TGI [9] | GI50 [10] | TGI [10]
CC(C)(C)CC(C)(C)c1ccc(O)c(Cc2ccc(Cl)cc2Cl)c1 | 1.62 µM | 2.98 µM | 1.16 µM | 2.41 µM | 1.7 µM | 3.12 µM | 1.6 µM | 2.95 µM | 1.71 µM | 3.72 µM | 1.74 µM | 3.11 µM | 1.68 µM | 3.24 µM | 2.09 µM | 3.83 µM | 1.69 µM | 3.05 µM | 1.84 µM | 3.36 µM
Cn1cc(-c2nc(-c3c[nH]c4ncccc34)cs2)c2ccccc21 | 26.9 µM | > 100 µM | 17.9 µM | > 100 µM | 6.66 µM | > 100 µM | 89.4 µM | > 100 µM | > 100 µM | > 100 µM | 4.46 µM | 24.7 µM | 31.9 µM | > 100 µM | 4.48 µM | > 100 µM | 62.8 µM | > 100 µM | 48.7 µM | > 100 µM
COc1cc(-c2nc3sc(C)cn3c2/C=C2\C(=O)Nc3ccccc32)c(Br)c(OC)c1OC | 15.6 µM | 40.7 µM |  |  | 23.4 µM | > 100 µM | 44.7 µM | > 100 µM | 31.5 µM | 74.6 µM | 22.9 µM | 51 µM | 26.1 µM | 78.5 µM | 48.4 µM | > 100 µM | 28.5 µM | 72.4 µM | 19.2 µM | 38.3 µM
O=C1CC(c2ccccc2)Cc2nc3ccc(Br)cc3cc21 (stereo not drawn) | 0.265 µM | 28.3 µM |  |  | 0.428 µM | > 100 µM | 4.65 µM | > 100 µM | 0.408 µM | > 94.5 µM | 0.304 µM | 1.14 µM | 0.076 µM | > 91.8 µM | 0.162 µM | > 100 µM | 0.209 µM | > 100 µM | 0.226 µM | 0.693 µM
Oc1c(Cl)cc(Cl)cc1/C=N/Nc1nnc(N/N=C/c2cc(Cl)cc(Cl)c2O)c2ccccc12 |  |  | 0.278 µM | 0.798 µM | 0.419 µM | > 100 µM | 0.407 µM | > 100 µM | 1.03 µM | > 100 µM | 0.334 µM | 18.2 µM | 0.68 µM | > 100 µM | 0.372 µM | > 100 µM | 0.715 µM | > 100 µM | 0.258 µM | 0.64 µM
O=C(COc1cccc(/C=C2\CSc3ccc(Cl)cc3C2=O)c1)c1ccc(Cl)cc1 | 4.48 µM | 18.7 µM | 14.1 µM | 34.3 µM | 3.29 µM | 20.2 µM | 13.6 µM | 30 µM | 2.46 µM | 6.91 µM | 3.8 µM | 13.6 µM | 10.6 µM | 23.9 µM | 1.83 µM | 4.53 µM | 13.6 µM | 27.9 µM | 16.8 µM | 31.2 µM
COc1cc(/C=C/c2cc(/C=C/c3ccc(O)c(OC)c3)n(C(=O)Nc3ccccc3Cl)n2)ccc1O | 0.636 µM | 3.3 µM | 0.309 µM | 0.845 µM | 0.485 µM | 2.39 µM | 0.529 µM | 3.18 µM | 0.114 µM | 0.89 µM | 0.45 µM | 3.68 µM | 0.539 µM | 2.01 µM | 0.301 µM | 3.11 µM | 0.472 µM | 1.64 µM | 0.352 µM | 1.58 µM
Cn1c2c(c3ccccc31)CCN(CCCCN1CCN(c3ccccc3)CC1)C2=O |  | > 100 µM |  | 76.4 µM |  | > 100 µM |  | > 78.4 µM |  | 50.6 µM |  | > 100 µM |  | 30.9 µM |  | > 56 µM |  | > 100 µM |  | > 100 µM
CC(C)(C)c1cc(NC(=O)Nc2ccc(-c3cn4c(n3)sc3cc(OCCN5CCOCC5)ccc34)cc2)no1 | 1.01 µM and 0.404 µM and 1.42 µM | 18.1 µM and 2.55 µM and > 10 µM | 0.8 µM and 0.489 µM and 0.881 µM | 6.26 µM and 3.49 µM and > 10 µM | 9.38 µM and 2.33 µM and > 10 µM | 25.7 µM and 15.7 µM and > 10 µM | 3.17 µM and 2.19 µM and 5.09 µM | 14.4 µM and 14.8 µM and > 10 µM | 1.35 µM and 0.328 µM and 1.75 µM | 25.3 µM and 2.92 µM and > 10 µM | 6.61 µM and 1.54 µM and 6.76 µM | 19.4 µM and 8.38 µM and > 10 µM | 2.62 µM and 1.59 µM and 6.17 µM | 14.7 µM and 13.3 µM and > 10 µM |  | 11.9 µM and > 10 µM | 10.7 µM and 2.28 µM and 9.69 µM | 22.5 µM and 13.3 µM and > 10 µM | 0.698 µM and 0.303 µM and 0.623 µM | 15.4 µM and 1.65 µM and > 10 µM
O=C(O)c1cc(=O)cc(C(=O)O)o1 | > 100 µM | > 100 µM | > 100 µM | > 100 µM | > 100 µM | > 100 µM | > 100 µM | > 100 µM | > 100 µM | > 100 µM | > 100 µM | > 100 µM | > 100 µM | > 100 µM | > 100 µM | > 100 µM | > 100 µM | > 100 µM | > 100 µM | > 100 µM
COc1ccc(CCN(CC(=O)N(CC(N)=O)C2CCC[C@@H]2OCc2ccccc2)C(=O)CN(C(=O)CN(CCc2ccc(Cl)cc2)C(=O)CN(C(=O)CN(C)Cc2ccccc2F)[C@H](C)C2CCCCC2)[C@H](C)C2CCCCC2)cc1OC (stereo partly drawn) | 1.16 µM | 3.49 µM | 1.49 µM | 3.84 µM | 1.68 µM | > 50 µM | 1.29 µM | > 50 µM | 7.26 µM | > 50 µM | 1.82 µM | > 50 µM | 1.66 µM | 46.2 µM | 1.61 µM | > 50 µM | 2.42 µM | > 50 µM | 1.43 µM | 4.54 µM
COC(=O)c1cc2oc(/C=C3/SC(=S)N(N)C3=O)cc2n1Cc1ccccc1 | 1.76 µM | 6.02 µM | 2.01 µM | 12.2 µM | 1.35 µM | 4.82 µM | 2.22 µM | 7.73 µM | 0.699 µM | 3.5 µM | 2.17 µM | 6.73 µM | 1.91 µM | 17.7 µM | 2.08 µM | > 21.7 µM | 3.59 µM | 15.7 µM | 2.3 µM | 6.3 µM
